Among the data in US10723699B2 (Hyundai Pharm Co., Ltd., priority 2015, dated 2020) are EC50 values, retold here.

Where two headings read alike, the source gives them in different places.

The target in this assay is T1, G protein-coupled receptor 119 (GPR-119) (Mesocricetus auratus, UniProt A0A1U8CD06).
T1 construct: hamster-derived β-cells containing G protein-coupled receptor 119 (GPR-119), HIT-T15 cells; host or cells: HIT-T15 (hamster pancreatic β-cells)
T1 sequence (A0A1U8CD06 1-334): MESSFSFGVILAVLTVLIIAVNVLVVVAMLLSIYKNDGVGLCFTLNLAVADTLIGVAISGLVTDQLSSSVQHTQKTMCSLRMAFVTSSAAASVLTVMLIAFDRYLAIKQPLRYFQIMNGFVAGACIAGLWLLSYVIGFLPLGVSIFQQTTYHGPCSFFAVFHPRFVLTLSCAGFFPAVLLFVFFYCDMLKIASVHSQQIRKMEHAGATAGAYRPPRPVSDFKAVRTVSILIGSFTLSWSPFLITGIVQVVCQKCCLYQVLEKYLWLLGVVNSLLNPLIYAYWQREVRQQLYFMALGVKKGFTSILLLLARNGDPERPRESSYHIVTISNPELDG
Kind of assay: cAMP activity in HIT-T15 cells (cAMP dynamic kit, FRET). It is filed as cell-based, hamster. In outline: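 Hamster HIT-T15 cells (60,000/well) were treated next day with compound at six concentrations, 0.0032–10 μM, for 1 h at 37° C. Cells were then lysed and cAMP measured by competitive HTRF immunoassay (D2-cAMP, cryptate anti-cAMP). Activity was derived as the change in FRET signal relative to DMSO.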

[1] abbreviates: 1 hour at 37° C., six concentrations 0.0032 to 10 μM, read-out: EC50.

What is called EC50 is the concentration at which the effect is half-maximal. As to `CC(C)(C)OC(=O)N1CCC(COc2ccc(C3=CCC(C(=O)N4CCSCC4)CC3)nc2)CC1` (stereo not shown) [Example 328, tert-butyl 4-((6-(4-(thiomorpholine-4-carbonyl)cyclohex-1-enyl)pyridin-3-yloxy)methyl)piperidine-1-carboxylate], the EC50 runs as follows: under setting [1], 21 nM; (Table 2, read-out: EC50 value) at most 50 nM. With `CCc1cnc(N2CCC(COc3ccc(C4=CCC(C(=O)N5CCOCC5)CC4)cc3C#N)CC2)nc1` (stereo not shown) [Example 388, 2-((1-(5-ethylpyrimidin-2-yl)piperidin-4-yl)methoxy)-5-(4-(morpholine-4-carbonyl)cyclohex-1-enyl)benzonitrile], under setting [1], the EC50 was 51 nM. `CCc1cnc(N2CCC(COc3ccc(C4=CCC(C(=O)N5CCC5)CC4)c(F)c3)CC2)nc1` (stereo not shown) [Example 425, azetidin-1-yl(4-(4-((1-(5-ethylpyrimidin-2-yl)piperidin-4-yl)methoxy)-2-fluorophenyl)cyclohex-3-enyl)methanone]: the EC50 runs as follows: under setting [1], 48 nM; (Table 2, read-out: EC50 value) at most 50 nM. The like results for `CC(C)(C)OC(=O)N1CCC(COc2ccc(C3=CCC(C(=O)N4CCOCC4)CC3)cc2F)CC1` (single isomer, unassigned; (+)) [Example 442, (+)-tert-butyl 4-((2-fluoro-4-(4-(morpholine-4-carbonyl)cyclohex-1-enyl)phenoxy)methyl)piperidine-1-carboxylate] were, in that order, 8 nM and at most 50 nM.

On to `CCC(F)(F)C(=O)N1CCC(COc2ccc(C3=CCC(C(=O)N4CCCC4)CC3)cc2F)CC1` (stereo not shown) [Example 436, 2,2-difluoro-1-(4-((2-fluoro-4-(4-(pyrrolidine-1-carbonyl)cyclohex-1-enyl)phenoxy)methyl)piperidin-1-yl)butan-1-one], for which the EC50 is 9.8 nM under setting [1] and at most 50 nM (Table 2, read-out: EC50 value). On to `CC(C)c1noc(N2CCC(COc3ccc(C4=CCC(C(=O)N5CCC(=NO)CC5)CC4)cc3F)CC2)n1` (stereo not shown) [Example 411, (4-(3-fluoro-4-((1-(3-isopropyl-1,2,4-oxadiazol-5-yl)piperidin-4-yl)methoxy)phenyl)cyclohex-3-enyl)(4-(hydroxyimino)piperidin-1-yl)methanone], for which the EC50 is, setting by setting: under setting [1], 15 nM; (Table 2, read-out: EC50 value) at most 50 nM. As to `CCc1cnc(N2CCC(COc3ccc(C4=CCC(C(=O)N5CCC(=NO)CC5)CC4)cc3F)CC2)nc1` (stereo not shown) [Example 377, (4-(4-((1-(5-ethylpyrimidin-2-yl)piperidin-4-yl)methoxy)-3-fluorophenyl)cyclohex-3-enyl)(4-(hydroxyimino)piperidin-1-yl)methanone], the EC50 by setting is: under setting [1], 11 nM; (Table 2, read-out: EC50 value) at most 50 nM. For the compound `CCc1cnc(N2CCC(COc3ccc(C4=CCC(C(=O)N5CC=CC5)CC4)cc3)CC2)nc1` (stereo not shown) [Example 235, (2,5-dihydro-1H-pyrrol-1-yl)(4-(4-((1-(5-ethylpyrimidin-2-yl)piperidin-4-yl)methoxy)phenyl)cyclohex-3-enyl)methanone], the EC50 (Table 2, read-out: EC50 value) was at most 50 nM. As to `CC(C)(C)OC(=O)N1CCC(COc2ccc(C3=CCC(C(=O)N4CCCC4)CC3)cc2F)CC1` (stereo not shown) [Example 392, tert-butyl 4-((2-fluoro-4-(4-(pyrrolidine-1-carbonyl)cyclohex-1-enyl)phenoxy)methyl)piperidine-1-carboxylate], the EC50 under setting [1] stood at 10 nM and the EC50 (Table 2, read-out: EC50 value) is at most 50 nM. The like results for `CCc1cnc(N2CCC(COc3ccc(C4=CCC(C(=O)N(CC)CCO)CC4)c(F)c3)CC2)nc1` (stereo not shown) [Example 438, N-ethyl-4-(4-((1-(5-ethylpyrimidin-2-yl)piperidin-4-yl)methoxy)-2-fluorophenyl)-N-(2-hydroxyethyl)cyclohex-3-enecarboxamide] were, in that order, 23 nM and at most 50 nM.

As to `CC(C)OC(=O)N1CCC(COc2ccc(C3=CCC(C(=O)N4CCCC4)CC3)cc2F)CC1` (stereo not shown) [Example 401, isopropyl 4-((2-fluoro-4-(4-(pyrrolidine-1-carbonyl)cyclohex-1-enyl)phenoxy)methyl)piperidine-1-carboxylate], the EC50 is 34 nM under setting [1] and at most 50 nM (Table 2, read-out: EC50 value). For `CC(C)c1noc(N2CCC(COc3ccc(C4=CCC(C(=O)N5CC[C@H](F)C5)CC4)cc3F)CC2)n1` (stereo partly drawn) [Example 95, (4-(3-fluoro-4-((1-(3-isopropyl-1,2,4-oxadiazol-5-yl)piperidin-4-yl)methoxy)phenyl)cyclohex-3-enyl)((S)-3-fluoropyrrolidin-1-yl)methanone], under “Table 2, read-out: EC50 value”, the concentration for a half-maximal effect (EC50) is at most 50 nM. Consider `CC(C)c1noc(N2CCC(COc3ccc(C4=CCC(C(=O)N5CCC5)CC4)cc3F)CC2)n1` (stereo not shown) [Example 330, azetidin-1-yl(4-(3-fluoro-4-((1-(3-isopropyl-1,2,4-oxadiazol-5-yl)piperidin-4-yl)methoxy)phenyl)cyclohex-3-enyl)methanone], for which the EC50 reads like this: under setting [1], 35 nM; (Table 2, read-out: EC50 value) at most 50 nM. On to `CCc1cnc(N2CCC(COc3ccc(C4=CCC(C(=O)N5CC[C@H](F)C5)CC4)cc3)CC2)nc1` (single isomer, unassigned; (-)) [Example 458], for which, under setting [1], the EC50 stood at 12 nM. Regarding `CCc1cnc(N2CCC(COc3ccc(C4=CCC(C(=O)N5CCC(CO)CC5)CC4)c(F)c3)CC2)nc1` (stereo not shown) [Example 432, (4-(4-((1-(5-ethylpyrimidin-2-yl)piperidin-4-yl)methoxy)-2-fluorophenyl)cyclohex-3-enyl)(4-(hydroxymethyl)piperidin-1-yl)methanone], the EC50 under setting [1] was 29 nM and the EC50 (Table 2, read-out: EC50 value) was at most 50 nM. The like results for `CC(C)c1noc(N2CCC(COc3ccc(C4=CCC(C(=O)NC5CCCCC5)CC4)cc3F)CC2)n1` (stereo not shown) [Example 366, N-cyclohexyl-4-(3-fluoro-4-((1-(3-isopropyl-1,2,4-oxadiazol-5-yl)piperidin-4-yl)methoxy)phenyl)cyclohex-3-enecarboxamide] were, in that order, 39 nM and at most 50 nM. As for `CC(C)c1noc(N2CCC(COc3ccc(C4=CCC(C(=O)N5CCC(=O)CC5)CC4)cc3F)CC2)n1` (stereo not shown) [Example 345, 1-(4-(3-fluoro-4-((1-(3-isopropyl-1,2,4-oxadiazol-5-yl)piperidin-4-yl)methoxy)phenyl)cyclohex-3-enecarbonyl)piperid in-4-one], the EC50 reads like this: (EC50 (nM), 1 hour at 37° C., six concentrations 0.0032 to 10 μM) 36 nM; (EC50 value, Table 2) at most 50 nM. In the case of `CCc1cnc(N2CCC(COc3ccc(C4=CCC(C(=O)N5CCCCC5)CC4)cc3C#N)CC2)nc1` (stereo not shown) [Example 385, 2-((1-(5-ethylpyrimidin-2-yl)piperidin-4-yl)methoxy)-5-(4-(piperidine-1-carbonyl)cyclohex-1-enyl)benzonitrile], the EC50 under setting [1] was found to be 45 nM and the EC50 (Table 2, read-out: EC50 value) was at most 50 nM.

On to `CC(C)c1noc(N2CCC(COc3ccc(C4=CCC(C(=O)N5CCC(C(N)=O)CC5)CC4)cc3F)CC2)n1` (stereo not shown) [Example 361, 1-(4-(3-fluoro-4-((1-(3-isopropyl-1,2,4-oxadiazol-5-yl)piperidin-4-yl)methoxy)phenyl)cyclohex-3-enecarbonyl)piperidine-4-carboxamide], for which the EC50 reads like this: under setting [1], 48 nM; (Table 2, read-out: EC50 value) at most 50 nM. In the case of `CCCNC(=O)N1CCN(C(=O)C2CC=C(c3ccc(OCC4CCN(c5ncc(CC)cn5)CC4)cc3)CC2)CC1` (stereo not shown) [Example 412, 4-(4-(4-((1-(5-ethylpyrimidin-2-yl)piperidin-4-yl)methoxy)phenyl)cyclohex-3-enecarbonyl)-N-propylpiperazine-1-carboxamide], the EC50 was 37 nM under setting [1] and at most 50 nM (Table 2, read-out: EC50 value). Consider `CCc1cnc(N2CCC(COc3ccc(C4=CCC(C(=O)N5CCC5)CC4)cc3C#N)CC2)nc1` (stereo not shown) [Example 387, 5-(4-(azetidine-1-carbonyl)cyclohex-1-enyl)-2-((1-(5-ethylpyrimidin-2-yl)piperidin-4-yl)methoxy)benzonitrile], for which, under setting [1], the EC50 came out at 79 nM.

Take `CCc1cnc(N2CCC(COc3ccc(C4=CCC(C(=O)N5CCN(C)CC5)CC4)cc3F)CC2)nc1` (stereo not shown) [Example 428, (4-(4-((1-(5-ethylpyrimidin-2-yl)piperidin-4-yl)methoxy)-3-fluorophenyl)cyclohex-3-enyl)(4-methylpiperazin-1-yl)methanone]: the EC50 under setting [1] was found to be 70 nM. With `O=C(C1CC=C(c2ccc(OCC3CCN(C(=O)C4(C(F)(F)F)CC4)CC3)c(F)c2)CC1)N1CCCC1` (stereo not shown) [Example 421, (4-(3-fluoro-4-((1-(1-(trifluoromethyl)cyclopropanecarbonyl)piperidin-4-yl)methoxy)phenyl)cyclohex-3-enyl)(pyrrolidin-1-yl)methanone], the EC50 under setting [1] is 53 nM. Turning to `O=C(Oc1ccccc1)N1CCC(COc2ccc(C3=CCC(C(=O)N4CCOCC4)CC3)cc2F)CC1` (stereo not shown) [Example 445, phenyl 4-((2-fluoro-4-(4-(morpholine-4-carbonyl)cyclohex-1-enyl)phenoxy)methyl)piperidine-1-carboxylate], the EC50 is 11 nM under setting [1] and at most 50 nM (Table 2, read-out: EC50 value). `CCN1CCN(C(=O)C2CC=C(c3ccc(OCC4CCN(c5nc(C(C)C)no5)CC4)c(F)c3)CC2)CC1` (stereo not shown) [Example 367, (4-ethylpiperazin-1-yl)(4-(3-fluoro-4-((1-(3-isopropyl-1,2,4-oxadiazol-5-yl)piperidin-4-yl)methoxy)phenyl)cyclohex-3-enyl)methanone]: the EC50 is, setting by setting: under setting [1], 26 nM; (Table 2, read-out: EC50 value) at most 50 nM.
